This experiment has as its target T1, PI3Kδ (Homo sapiens, UniProt O00329).
T1 construct: endogenous in cells; host or cells: Raji cells
Description: Cell Based Assay for PI3Kδ (AKT phosphorylation, AlphaScreen SureFire, anti-IgM stimulated Raji cells). To be noted: compounds 1 h, anti-IgM (3 μg/mL) 30 min, phosphorylation of AKT, read-out: PI3Kδ inhibition IC50. On the procedure: [formula] C) Cell Based Assay for PI3Kδ
Raji cells were maintained in RPMI-1640 (Sigma) supplemented with 10% fetal bovine serum (heat inactivated) (FBS, Sigma), 100 U penicillin/mL, and […] streptomycin and incubated at 37° C. and 5% CO2. Cells were centrifuged and resuspended in a complete medium. The required numbers of cells were transferred to a tissue culture flask containing medium without serum for 1 h at 37° C., 5% CO2. Following 1 h serum starvation, cells were centrifuged and resuspended in Hank's Balanced Salt Solution (HBSS, Sigma) and seeded in at a density of 1 million cells/well in 96-well clear bottom plates. The cells were treated with test compounds for 1 h at 37° C., 5% CO2. Cells were then stimulated with anti-IgM (3 μg/mL) for 30 min. After Stimulation, cells were lysed with 15 μL of 5× lysis buffer and the plate was shaken on an orbital plate shaker at approximately 300 rpm for 10 min. AlphaScreen® SureFire® Cell-based Assay (Perkin-Elmer, Waltham, Mass., USA) was performed to measure phosphorylation of AKT, in the cells according to the manufacturer's instructions. The luminescence was measured using an alpha technology-compatible plate reader BMG Labtech, Germany) at 520-620 nm. Percentage inhibition was calculated according to formula: […]
IC50 values were calculated by plotting % inhibition against the respective concentrations of test compounds using GraphPad Prism 5.

T1 sequence (O00329 whole entry): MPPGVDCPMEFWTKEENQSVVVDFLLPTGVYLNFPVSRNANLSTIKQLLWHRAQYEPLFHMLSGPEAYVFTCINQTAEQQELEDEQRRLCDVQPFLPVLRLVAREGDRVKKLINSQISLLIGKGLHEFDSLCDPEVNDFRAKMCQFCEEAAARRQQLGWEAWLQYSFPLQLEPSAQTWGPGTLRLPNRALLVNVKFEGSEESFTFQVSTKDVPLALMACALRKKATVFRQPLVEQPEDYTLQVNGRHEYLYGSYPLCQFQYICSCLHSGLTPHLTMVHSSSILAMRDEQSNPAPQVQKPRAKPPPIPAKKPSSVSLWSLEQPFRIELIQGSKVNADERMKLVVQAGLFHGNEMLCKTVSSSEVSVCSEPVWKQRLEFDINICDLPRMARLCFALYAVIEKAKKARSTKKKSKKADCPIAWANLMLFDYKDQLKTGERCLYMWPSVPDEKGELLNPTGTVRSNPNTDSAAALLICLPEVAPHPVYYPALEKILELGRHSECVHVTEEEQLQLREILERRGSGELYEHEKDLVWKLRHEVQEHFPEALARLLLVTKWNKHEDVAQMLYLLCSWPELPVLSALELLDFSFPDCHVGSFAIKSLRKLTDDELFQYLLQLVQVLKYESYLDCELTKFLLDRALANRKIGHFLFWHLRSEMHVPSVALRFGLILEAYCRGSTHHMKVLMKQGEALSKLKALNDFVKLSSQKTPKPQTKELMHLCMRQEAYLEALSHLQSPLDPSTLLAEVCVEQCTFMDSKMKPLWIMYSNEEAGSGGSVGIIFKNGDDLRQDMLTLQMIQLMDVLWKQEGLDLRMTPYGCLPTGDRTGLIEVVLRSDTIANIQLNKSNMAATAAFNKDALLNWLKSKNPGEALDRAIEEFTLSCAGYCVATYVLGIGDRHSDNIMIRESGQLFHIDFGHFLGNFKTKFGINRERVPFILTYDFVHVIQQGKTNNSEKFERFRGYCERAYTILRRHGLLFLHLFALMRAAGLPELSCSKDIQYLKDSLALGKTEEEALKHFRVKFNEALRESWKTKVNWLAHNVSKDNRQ
T1 sequence (P27986 whole entry partner): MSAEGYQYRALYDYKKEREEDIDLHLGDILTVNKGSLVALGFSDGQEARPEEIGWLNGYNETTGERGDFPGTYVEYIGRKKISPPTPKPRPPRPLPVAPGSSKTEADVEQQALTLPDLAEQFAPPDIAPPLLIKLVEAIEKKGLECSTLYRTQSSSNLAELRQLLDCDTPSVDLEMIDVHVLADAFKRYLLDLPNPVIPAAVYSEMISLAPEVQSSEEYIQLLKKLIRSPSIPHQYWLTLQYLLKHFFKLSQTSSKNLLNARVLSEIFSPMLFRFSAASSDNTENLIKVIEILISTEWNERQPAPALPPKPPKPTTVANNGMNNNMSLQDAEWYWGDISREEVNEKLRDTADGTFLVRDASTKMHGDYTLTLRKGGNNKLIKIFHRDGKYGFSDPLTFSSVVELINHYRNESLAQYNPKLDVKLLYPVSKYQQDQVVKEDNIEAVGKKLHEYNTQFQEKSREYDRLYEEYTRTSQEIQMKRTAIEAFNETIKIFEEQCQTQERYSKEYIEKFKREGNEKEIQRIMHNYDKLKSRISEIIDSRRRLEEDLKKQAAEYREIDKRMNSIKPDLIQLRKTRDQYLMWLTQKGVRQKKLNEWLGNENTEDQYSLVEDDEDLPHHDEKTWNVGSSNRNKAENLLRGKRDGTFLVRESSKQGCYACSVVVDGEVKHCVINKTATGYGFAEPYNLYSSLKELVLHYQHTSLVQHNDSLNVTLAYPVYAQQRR

For the compound `Cc1cc(F)cc(-c2c([C@H](C)Nc3ncnc(N)c3C#N)cc3ccc(F)cn3c2=O)c1` [Compound 29, (S)-4-amino-6-((1-(7-fluoro-3-(3-fluoro-5-methylphenyl)-4-oxo-4H-quinolizin-2-yl)ethyl)amino)pyrimidine-5-carbonitrile], the IC50 (as a rule, the concentration that inhibits the measured activity by half) lay within 0.011 to 0.05 µM.
Turning to `Cc1cccc(-c2c([C@H](C)Nc3ncnc(N)c3C#N)cc3ccc(F)cn3c2=O)c1` [Compound 31, (S)-4-amino-6-((1-(7-fluoro-4-oxo-3-(m-tolyl)-4H-quinolizin-2-yl)ethyl)amino)pyrimidine-5-carbonitrile], the IC50 lay within 0.011 to 0.05 µM.
The figure for `C[C@H](Nc1nc(N)nc2[nH]cnc12)c1cc2ccc(F)cn2c(=O)c1-c1ccccc1` [Compound 33, (S)-2-(1-((2-amino-9H-purin-6-yl)amino)ethyl)-7-fluoro-3-phenyl-4H-quinolizin-4-one] is 0.0001 to 0.01 µM; for `C[C@H](Nc1ncnc(N)c1C#N)c1cc2ccc(F)cn2c(=O)c1-c1cccc(OC(F)(F)F)c1` [Compound 34, (S)-4-amino-6-((1-(7-fluoro-4-oxo-3-(3-(trifluoromethoxy)phenyl)-4H-quinolizin-2-yl)ethyl)amino)pyrimidine-5-carbonitrile] it is 0.011 to 0.05 µM.
As for `C[C@H](Nc1ncnc(N)c1C#N)c1cc2ccc(F)cn2c(=O)c1-c1ccc(F)cc1` [Compound 36, (S)-4-amino-6-((1-(7-fluoro-3-(4-fluorophenyl)-4-oxo-4H-quinolizin-2-yl)ethyl)amino)pyrimidine-5-carbonitrile], the IC50 was 0.011 to 0.05 µM.
Next, `C[C@H](Nc1ncnc2[nH]cc(F)c12)c1cc2ccc(F)cn2c(=O)c1-c1ccccc1` [Compound 40, (S)-7-fluoro-2-(1-((5-fluoro-7H-pyrrolo[2,3-d]pyrimidin-4-yl)amino)ethyl)-3-phenyl-4H-quinolizin-4-one]: 0.0001 to 0.01 µM; `C[C@H](Nc1ncnc(N)c1C#N)c1cc2ccc(F)cn2c(=O)c1-c1cc(F)cc(F)c1` [Compound 48, (S)-4-amino-6-((1-(3-(3,5-difluorophenyl)-7-fluoro-4-oxo-4H-quinolizin-2-yl)ethyl)amino)pyrimidine-5-carbonitrile]: 0.0001 to 0.01 µM.
Next, `C[C@H](Nc1ncnc2[nH]cnc12)c1cc2ccc(F)cn2c(=O)c1-c1cc(F)cc(F)c1` [Compound 50, (S)-2-(1-((9H-purin-6-yl)amino)ethyl)-3-(3,5-difluorophenyl)-7-fluoro-4H-quinolizin-4-one]: 0.011 to 0.05 µM.
Next, `C[C@H](Nc1nc(N)nc2[nH]cnc12)c1cc2ccc(F)cn2c(=O)c1-c1cc(F)cc(F)c1` [Compound 51, (S)-2-(1-((2-amino-9H-purin-6-yl)amino)ethyl)-3-(3,5-difluorophenyl)-7-fluoro-4H-quinolizin-4-one]: 0.011 to 0.05 µM.
As for `C[C@H](Nc1ncnc2scnc12)c1cc2ccc(F)cn2c(=O)c1-c1ccccc1` [Compound 52, (S)-7-fluoro-3-phenyl-2-(1-(thiazolo[5,4-d]pyrimidin-7-ylamino)ethyl)-4H-quinolizin-4-one], the half-inhibitory concentration (IC50) was in the range of 0.0001 to 0.01 µM.
Next, `C[C@H](Nc1nc(N)nc(Cl)c1C#N)c1cc2ccc(F)cn2c(=O)c1-c1ccccc1` [Compound 53, (S)-2-amino-4-chloro-6-((1-(7-fluoro-4-oxo-3-phenyl-4H-quinolizin-2-yl)ethyl)amino)pyrimidine-5-carbonitrile]: 0.0001 to 0.01 µM.
Consider `C[C@H](Nc1ncnc2cccnc12)c1cc2ccc(F)cn2c(=O)c1-c1ccccc1` [Compound 54, (S)-7-fluoro-3-phenyl-2-(1-(pyrido[3,2-d]pyrimidin-4-ylamino)ethyl)-4H-quinolizin-4-one], for which the IC50 is 0.0001 to 0.01 µM.
Next, `CC(c1cc2ccc(F)cn2c(=O)c1-c1ccccc1)n1nc(-c2cc(O)cc(F)c2)c2c(N)ncnc21` (stereo not drawn) [Compound 59, 2-(1-(4-amino-3-(3-fluoro-5-hydroxyphenyl)-1H-pyrazolo[3,4-d]pyrimidin-1-yl)ethyl)-7-fluoro-3-phenyl-4H-quinolizin-4-one]: 0.0001 to 0.01 µM.
As to `CC(c1cc2ccc(F)cn2c(=O)c1-c1ccccc1)n1nc(-c2ccc(O)c(F)c2)c2c(N)ncnc21` (stereo not drawn) [Compound 60, 2-(1-(4-amino-3-(3-fluoro-4-hydroxyphenyl)-1H-pyrazolo[3,4-d]pyrimidin-1-yl)ethyl)-7-fluoro-3-phenyl-4H-quinolizin-4-one], the IC50 fell in the range of 0.011 to 0.05 µM.
For the compound `CC(c1cc2ccc(F)cn2c(=O)c1-c1ccccc1)n1nc(-c2ccc(F)c(O)c2)c2c(N)ncnc21` (stereo not drawn) [Compound 61, 2-(1-(4-amino-3-(4-fluoro-3-hydroxyphenyl)-1H-pyrazolo[3,4-d]pyrimidin-1-yl)ethyl)-7-fluoro-3-phenyl-4H-quinolizin-4-one], the IC50 lay within 0.0001 to 0.01 µM.
The figure for `CC(c1cc2ccc(F)cn2c(=O)c1-c1ccccc1)n1nc(-c2cccc(O)c2)c2c(N)ncnc21` (stereo not drawn) [Compound 62, 2-(1-(4-amino-3-(3-hydroxyphenyl)-1H-pyrazolo[3,4-d]pyrimidin-1-yl)ethyl)-7-fluoro-3-phenyl-4H-quinolizin-4-one] is 0.0001 to 0.01 µM; for `CC(c1cc2ccc(F)cn2c(=O)c1-c1ccccc1)n1cc(-c2cc(O)cc(F)c2)c2c(N)ncnc21` (stereo not drawn) [Compound 63, 2-(1-(4-amino-5-(3-fluoro-5-hydroxyphenyl)-7H-pyrrolo[2,3-d]pyrimidin-7-yl)ethyl)-7-fluoro-3-phenyl-4H-quinolizin-4-one] it is 0.0001 to 0.01 µM.
With `CC(c1cc2ccc(F)cn2c(=O)c1-c1ccccc1)n1nc(-c2ccc3c(c2)CC(=O)N3)c2c(N)ncnc21` (stereo not drawn) [Compound 65, 2-(1-(4-amino-3-(2-oxoindolin-5-yl)-1H-pyrazolo[3,4-d]pyrimidin-1-yl)ethyl)-7-fluoro-3-phenyl-4H-quinolizin-4-one], the IC50 was 0.051 to 0.25 µM.
